Data reported in US11813306B2, “Cyclic tetramer compounds as proprotein convertase subtilisin/kexin type 9 (PCSK9) inhibitors for the treatment of metabolic disorders” (NOVARTIS AG, priority 2018, dated 2023).

Target: human PCSK9 (Homo sapiens, UniProt Q8NBP7)
Test: PCSK9 ligand binding assay (TR-FRET): interference with binding of human PCSK9 to human LDLR
Conditions: for IC50: Human PCSK9 Alexa Fluor 647 / Human LDLR extracellular domain-Europium Kryptate; for Max % inhibition: efficacy (Amax), 100% = 1 uM unlabeled human PCSK9, 0% = DMSO
Experimental: Example 10: PCSK9 Ligand Binding Assay
The PCSK9 binding of the compounds of the disclosure were measured using a time resolved fluorescence resonance energy transfer (TR-FRET) assay. This time resolved fluorescence resonance energy transfer (TR-FRET) assay measures the ability of a compound of the present disclosure to interfere with the binding of human PCSK9 to human LDLR, providing measures of both potency (IC50) and efficacy (Amax).
Human PCSK9 Alexa Fluor 647
Human LDLR extracellular domain-Europium Kryptate
Proxi plate-low volume assay plate (PerkinElmer #6008280)
Greiner V-bottom (Greiner BioOne #781280)
Assay Buffer • 20 mM HEPES, pH 7.5 • 150 mM NaCl • 1 mM CaCl2 • 0.01% v/v Tween20 • 0.01% w/v BSA
A master compound plate was prepared in a Greiner V bottom plate by diluting compounds of the disclosure in dimethylsulfoxide to the correct concentration for the desired top concentration based on the desired final concentration: for a 30 uM final concentration the master plate concentration is 1.5 mM (68 uL DMSO+12 uL 10 mM of a compound of the disclosure), for a 10 uM final concentration the master plate concentration is 0.5 mM (76 uL DMSO+4 uL 10 mM of a compound of the disclosure), for a 3 uM final concentration the master plate concentration is 150 uM (69 uL DMSO+1 uL 10 mM of a compound of the disclosure). These solutions were pipetted into columns 1 and 11 of the compound plate. Threefold serial dilutions were generated in columns 2-10 and 12-20 of the compound plate by transferring 10 uL into 20 uL of DMSO. Columns 21 and 22 of the compound plate were negative controls containing DMSO alone.
An intermediate plate was generated in a Greiner V bottom plate by transferring 8 uL from each well of the master plate into a corresponding well containing 92 uL of assay buffer and mixing thoroughly.
A Proxi plate-low volume assay plate was used for the assay. To all wells of the plate was added 10 uL of 16 nM Human PCSK9 Alexa Fluor 647, followed by 5 uL from the intermediate plate. For the positive control wells in columns 23 and 24 of the plate, 5 uL of unlabeled human PCSK9 was added at 4 uM in assay buffer containing 8% DMSO. Following a 30 minute incubation, 5 uL of 4 nM Human LDLR extracellular domain-Europium Kryptate was added and the mixture was incubated for an additional 2 hours.
The TR-FRET signal was measured on an EnVision or PheraStar instrument with a 60 ms delay, 330 nm excitation and 665 nm emission (FRET), and 330 nm excitation and 615 nm (Europium). The FRET ratio (FRET/Europium) was used for calculations.
No inhibition (0%) was observed from the wells containing DMSO (Control) in columns 21 and 22 of the compound plate. Full inhibition (100%) was observed from the wells containing 1 uM human PCSK9 (Control) in columns 23 and 24 of the plate. Data is expressed as percent inhibition: (value—0%)/(100%-0%).

human PCSK9, sequence (Q8NBP7 153-692): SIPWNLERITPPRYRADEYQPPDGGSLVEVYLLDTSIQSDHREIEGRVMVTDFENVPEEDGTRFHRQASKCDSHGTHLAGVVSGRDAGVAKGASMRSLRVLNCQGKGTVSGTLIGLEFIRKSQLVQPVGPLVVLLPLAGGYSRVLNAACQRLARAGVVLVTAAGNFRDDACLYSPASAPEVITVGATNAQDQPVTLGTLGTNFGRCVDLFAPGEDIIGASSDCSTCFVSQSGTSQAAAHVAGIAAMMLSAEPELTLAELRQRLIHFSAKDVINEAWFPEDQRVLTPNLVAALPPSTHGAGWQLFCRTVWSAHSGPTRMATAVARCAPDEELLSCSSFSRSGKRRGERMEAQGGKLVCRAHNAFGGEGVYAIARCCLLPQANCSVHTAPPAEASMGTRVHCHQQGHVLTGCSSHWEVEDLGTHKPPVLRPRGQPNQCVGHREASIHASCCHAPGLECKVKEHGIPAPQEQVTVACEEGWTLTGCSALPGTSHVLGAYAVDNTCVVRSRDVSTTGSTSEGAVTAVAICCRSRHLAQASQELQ
human PCSK9, sequence (Q8NBP7 31-152 partner limits assumed): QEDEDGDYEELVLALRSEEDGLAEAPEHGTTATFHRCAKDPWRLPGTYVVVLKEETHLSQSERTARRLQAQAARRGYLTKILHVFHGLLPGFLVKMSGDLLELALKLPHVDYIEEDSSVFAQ

Compound	IC50	Max % inhibition
C[C@H]1C(=O)N[C@@H](CO)C(=O)N[C@@]2(Cc3ccc(Cl)cc3)CCCN(C2)C(=O)[C@H](Cc2cccnc2)CC(=O)N1Cc1ccc(Cl)cc1Oc1ccc(-c2cnc(CN3CCOCC3)n2C)cc1.Cl [Compound 47, (3R, 7S, 10S, 13R)-6-(4-chloro-2-(4-(1-methyl-2-(morpholinomethyl)-1H-imidazol-5-yl)phenoxy)benzyl)-13-(4-chlorobenzyl)-10-(hydroxymethyl)-7-methyl-3-(pyridin-3-ylmethyl)-1,6,9,12-tetraazabicyclo[11.3.1]heptadecane-2,5,8,11-tetraone]	0.82 nM	97.0%
C[C@H]1C(=O)N[C@@H](CO)C(=O)N[C@@]2(Cc3ccc(Cl)cc3)CCCN(C2)C(=O)[C@H]([C@@H]2CCc3ccccc32)CC(=O)N1Cc1ccc(Cl)cc1Oc1ccc(-c2cnc(CN3CCCC3)n2C)cc1.Cl [Compound 74, (3S, 7S, 10S, 13R)-6-(4-chloro-2-(4-(1-methyl-2-(pyrrolidin-1-ylmethyl)-1H-imidazol-5-yl)phenoxy)benzyl)-13-(4-chlorobenzyl)-3-((S)-2,3-dihydro-1H-inden-1-yl)-10-(hydroxymethyl)-7-methyl-1,6,9,12-tetraazabicyclo[11.3.1]heptadecane-2,5,8,11-tetraone]	1.73 nM	99.1%
C[C@H]1C(=O)N[C@@H](CO)C(=O)N[C@@]2(Cc3ccc(Cl)cc3)CCCN(C2)C(=O)[C@H]([C@@H]2CCc3ccccc32)CC(=O)N1Cc1ccc(C(F)(F)F)cc1Oc1ccc(-c2cnc(CN(C)C)n2C)cc1 [Compound 90]	1.71 nM	99.2%
C[C@H]1C(=O)N[C@@H](CO)C(=O)N(C)[C@H](Cc2ccc(Cl)cc2)CN(C)C(=O)[C@H](Cc2ccccc2)CC(=O)N1Cc1ccc(Cl)cc1Oc1cc(F)c(-c2cnc(CN3CCCC3)n2C)c(F)c1.Cl [Compound 106, (2S, 5S, 8R, 12R)-12-benzyl-1-(4-chloro-2-(3,5-difluoro-4-(1-methyl-2-(pyrrolidin-1-ylmethyl)-1H-imidazol-5-yl)phenoxy)benzyl)-8-(4-chlorobenzyl)-5-(hydroxymethyl)-2,7,10-trimethyl-1,4,7,10-tetraazacyclotetradecane-3,6,11,14-tetraone]	8.52 nM	105.1%
C[C@H]1C(=O)N[C@@H](CO)C(=O)N[C@@]2(Cc3ccc(Cl)cc3)CCCN(C2)C(=O)[C@H](CC2CCC2)CC(=O)N1Cc1c(F)cc(Cl)cc1Oc1ccc(-c2cnc(CN(C)C)n2C)cc1 [Compound 155, (3R, 7S, 10S, 13R)-6-(4-chloro-2-(4-(2-((dimethylamino)methyl)-1-methyl-1H-imidazol-5-yl)phenoxy)-6-fluorobenzyl)-13-(4-chlorobenzyl)-3-(cyclobutylmethyl)-10-(hydroxymethyl)-7-methyl-1,6,9,12-tetraazabicyclo[11.3.1]heptadecane-2,5,8,11-tetraone]	0.95 nM	101.4%
C[C@H]1C(=O)N[C@@H](CO)C(=O)N[C@@]2(Cc3ccc(Cl)cc3)CCCN(C2)C(=O)[C@H](CC(F)(F)F)CC(=O)N1Cc1c(F)cc(Cl)cc1Oc1ccc(-c2cnc(CN(C)C3CCC3)n2C)cc1 [Compound 139, (3S, 7S, 10S, 13R)-6-(4-chloro-2-(4-(2-((cyclobutyl(methyl)amino)methyl)-1-methyl-1H-imidazol-5-yl)phenoxy)-6-fluorobenzyl)-13-(4-chlorobenzyl)-10-(hydroxymethyl)-7-methyl-3-(2,2,2-trifluoroethyl)-1,6,9,12-tetraazabicyclo[11.3.1]heptadecane-2,5,8,11-tetraone]	0.15 nM	113.0%
COC[C@@H]1NC(=O)[C@H](C)N(Cc2c(F)cc(Cl)cc2Oc2ccc(-c3cnc(CN(C)C)n3C)nc2)C(=O)C[C@@H](C2CC(F)(F)C2)C(=O)N2CCC[C@@](Cc3ccc(Cl)cc3)(C2)N(C)C1=O [Compound 171]	1.03 nM	107.8%
COC[C@@H]1NC(=O)[C@H](C)N(Cc2c(F)cc(Cl)cc2Oc2ccc(-c3cnc(CN(C)C)n3C)nc2)C(=O)C[C@@H](CC(F)(F)F)C(=O)N2CCC[C@@](Cc3ccc(Cl)cc3)(C2)NC1=O [Compound 8]	0.465 nM	104.7%

Other lines, results leading:

IC50	Max % inhibition	Compound
0.97 nM	119.8%	COC[C@@H]1NC(=O)[C@H](C)N(Cc2ncc(Cl)cc2Oc2ccc(-c3cnc(CN(C)C)n3C)cc2)C(=O)C[C@@H](CC(F)(F)F)C(=O)N2CCC[C@@](Cc3ccc(Cl)cc3)(C2)NC1=O [Compound 29, (3S, 7S, 10S, 13R)-6-((5-chloro-3-(4-(2-((dimethylamino)methyl)-1-methyl-1H-imidazol-5-yl)phenoxy)pyridin-2-yl)methyl)-13-(4-chlorobenzyl)-10-(methoxymethyl)-7-methyl-3-(2,2,2-trifluoroethyl)-1,6,9,12-tetraazabicyclo[11.3.1]heptadecane-2,5,8,11-tetraone]
0.347 nM	112.4%	C[C@H]1C(=O)N[C@@H](CO)C(=O)N[C@@]2(Cc3ccc(Cl)cc3)CCCN(C2)C(=O)[C@H](CC(F)(F)F)CC(=O)N1Cc1ccc(Cl)cc1Oc1ccc(-c2cnc(CN(C)C)n2C)cc1 [Compound 83, (3S,7S,10S,13R)-6-(4-Chloro-2-(4-(2-((dimethylamino)methyl)-1-methyl-1H-imidazol-5-yl)phenoxy)benzyl)-13-(4-chlorobenzyl)-10-(hydroxymethyl)-7-methyl-3-(2,2,2-trifluoroethyl)-1,6,9,12-tetraazabicyclo[11.3.1]heptadecane-2,5,8,11-tetraone]
1.62 nM	95.0%	C[C@H]1C(=O)N[C@@H](CO)C(=O)N[C@@]2(Cc3ccc(Cl)cc3)CCCN(C2)C(=O)[C@H]([C@H]2CCc3ccccc32)CC(=O)N1Cc1ccc(Cl)cc1Oc1ccc(-c2cnc(CN3CCCC3)n2C)cc1.Cl [Compound 68, (3S,7S,10S,13R)-6-(4-chloro-2-(4-(1-methyl-2-(pyrrolidin-1-ylmethyl)-1H-imidazol-5-yl)phenoxy)benzyl)-13-(4-chlorobenzyl)-3-((R)-2,3-dihydro-1H-inden-1-yl)-10-(hydroxymethyl)-7-methyl-1,6,9,12-tetraazabicyclo[11.3.1]heptadecane-2,5,8,11-tetraone hydrochloride]
0.85 nM	113.1%	COC[C@@H]1NC(=O)[C@H](C)N(Cc2c(F)cc(Cl)cc2Oc2ccc(-c3cnc(CN(C)C(C)(C)C)n3C)cc2)C(=O)C[C@@H](C2CC(F)(F)C2)C(=O)N2CCC[C@@](Cc3ccc(Cl)cc3)(C2)N(C)C1=O [Compound 169, (3S, 7S, 10S, 13R)-6-(2-(4-(2-((tert-butyl(methyl)amino)methyl)-1-methyl-1H-imidazol-5-yl)phenoxy)-4-chloro-6-fluorobenzyl)-13-(4-chlorobenzyl)-3-(3,3-difluorocyclobutyl)-10-(methoxymethyl)-7,12-dimethyl-1,6,9,12-tetraazabicyclo[11.3.1]heptadecane-2,5,8,11-tetraone]
0.18 nM	114.0%	COC[C@@H]1NC(=O)[C@H](C)N(Cc2c(F)cc(Cl)cc2Oc2ccc(-c3cnc(CNC(C)(C)C)n3C)cc2)C(=O)C[C@@H](CC(F)(F)F)C(=O)N2CCC[C@@](Cc3ccc(Cl)cc3)(C2)NC1=O [Compound 138, (3S, 7S, 10S, 13R)-6-(2-(4-(2-((tert-butylamino)methyl)-1-methyl-1H-imidazol-5-yl)phenoxy)-4-chloro-6-fluorobenzyl)-13-(4-chlorobenzyl)-10-(methoxymethyl)-7-methyl-3-(2,2,2-trifluoroethyl)-1,6,9,12-tetraazabicyclo[11.3.1]heptadecane-2,5,8,11-tetraone]
0.612 nM	114.2%	C[C@H]1C(=O)N[C@@H](CO)C(=O)N[C@@]2(Cc3ccc(Cl)cc3)CCCN(C2)C(=O)[C@H](CC(F)(F)F)CC(=O)N1Cc1c(F)cc(Cl)cc1Oc1ccc(-c2cnc(CN3CCC3)n2C)cc1 [Compound 28, (3S, 7S, 10S, 13R)-6-(2-(4-(2-(azetidin-1-ylmethyl)-1-methyl-1H-imidazol-5-yl)phenoxy)-4-chloro-6-fluorobenzyl)-13-(4-chlorobenzyl)-10-(hydroxymethyl)-7-methyl-3-(2,2,2-trifluoroethyl)-1,6,9,12-tetraazabicyclo[11.3.1]heptadecane-2,5,8,11-tetraone]
